{"source": "patent EP4534086A1", "about": "“TREATMENT OF LEUKODYSTROPHY” (priority 2023, dated 2025)", "key": {"[1]": {"test_system": "Vimentin, Iba1 and IL-6 / MBP and MOG", "test": "Gene-expression signature from RT-qPCR of cerebellum (inflammation/myelin ratio)", "assay_type": "in vivo, mice", "conditions": "donepezil vs vehicle", "experimental": "Total RNAs were isolated from cerebellum tissues using the Nucleospin® total RNA isolation kit (Macherey-Nagel, Germany). The concentrations of isolated RNA from each sample were assessed using a NanoDrop 2000 Spectrophotometer (Thermo Scientific, USA). 10 µL of the isolated RNA were equalized to 20 microlitres (µL) using RNase-free water. Then, the cDNA was synthesized by reverse transcription using the High-Capacity cDNA manufacture kit (Applied Biosystems™, Thermo Fisher Scientific, USA). Equal volumes of the isolated RNA and cDNA mastermix were mixed, centrifuged, and loaded in the thermal cycler (T100™, BIO-RAD, USA). The cDNA was diluted 1:2 with RNase-free water and stored at -20 deg.°C prior to qPCR analysis. The manufactured cDNA was amplified using multi-target qPCR. cDNA and PCR mastermix, containing the target and endogenous primers, as well as the Taqman mastermix, were loaded on a 96-well PCR fast plate (Thermo Fisher Scientific, USA) in an ice block. […] Gene expression data were analyzed using the Livak and Schmittgen (2001) ΔΔCt method, to produce a relative quantity (RQ) value of target gene expression relative to GAPDH expression as per formula in equations 1-3: (1) ΔCt=Ct target- Ct endogenous; (2) ΔΔCt= ΔCt sample- ΔCt control sample; (3) RQ=2-ΔΔCt.\nData normality was assessed using the Shapiro-Wilk test. […]"}, "Sig-1R": {"molecular_target": "T1, Sig-1R (Rattus norvegicus, UniProt Q9R0C9)", "T1 construct": "host or cells: living rats", "T1 sequence (Q9R0C9 whole entry)": "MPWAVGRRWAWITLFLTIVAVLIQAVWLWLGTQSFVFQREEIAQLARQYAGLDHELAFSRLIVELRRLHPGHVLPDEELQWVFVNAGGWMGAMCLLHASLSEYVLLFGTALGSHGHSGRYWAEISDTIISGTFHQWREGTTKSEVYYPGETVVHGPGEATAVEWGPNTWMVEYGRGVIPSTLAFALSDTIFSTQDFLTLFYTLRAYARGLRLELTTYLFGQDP", "conditions": "rats; cited from earlier work"}}, "data": [{"smiles": "COc1cc2c(cc1OC)C(=O)C(CC1CCN(Cc3ccccc3)CC1)C2", "note": "(racemic) [donepezil, (RS)-2-[(1-Benzyl-4-piperidyl)methyl]-5,6-dimethoxy-2,3-dihydroinden-1-one]", "values": [{"measurement": "gene-expression-signature (Vimentin, Iba1 and IL-6 divided by MBP and MOG)", "setting": "[1]; twitcher mice, p=0.0016", "result": "significant decrease"}, {"measurement": "gene-expression-signature (Vimentin, Iba1 and IL-6 divided by MBP and MOG)", "setting": "[1]; wild-type mice, p=0.2495", "result": "no significant difference"}, {"measurement": "dose corresponding to EC50 for receptor occupancy", "setting": "Sig-1R", "result": 1.07, "unit": "mg/kg"}]}]}
